Read-outs that look alike come from different tables or passages of the source.
Columns and labels:
[1] = molecular target: T1, human 4F2hc-LAT1 (Homo sapiens, UniProt Q01650); assay: Scintillation proximity radioligand binding assay (SPA), [3H]L-leucine competition on purified protein; settings: for Binding of [3H]L-Leucine (%), residual radioligand binding (RRB) / Binding of [3H]L-Leucine (%), residual radioligand binding: normalized to control without competitor; for Binding of [3H]L-Leucine (%), residual radioligand binding: mean of three experiments
T1 construct: Strep-tag (N); made in house; host or cells: Pichia pastoris strain KM71H
T1 sequence (Q01650 whole entry): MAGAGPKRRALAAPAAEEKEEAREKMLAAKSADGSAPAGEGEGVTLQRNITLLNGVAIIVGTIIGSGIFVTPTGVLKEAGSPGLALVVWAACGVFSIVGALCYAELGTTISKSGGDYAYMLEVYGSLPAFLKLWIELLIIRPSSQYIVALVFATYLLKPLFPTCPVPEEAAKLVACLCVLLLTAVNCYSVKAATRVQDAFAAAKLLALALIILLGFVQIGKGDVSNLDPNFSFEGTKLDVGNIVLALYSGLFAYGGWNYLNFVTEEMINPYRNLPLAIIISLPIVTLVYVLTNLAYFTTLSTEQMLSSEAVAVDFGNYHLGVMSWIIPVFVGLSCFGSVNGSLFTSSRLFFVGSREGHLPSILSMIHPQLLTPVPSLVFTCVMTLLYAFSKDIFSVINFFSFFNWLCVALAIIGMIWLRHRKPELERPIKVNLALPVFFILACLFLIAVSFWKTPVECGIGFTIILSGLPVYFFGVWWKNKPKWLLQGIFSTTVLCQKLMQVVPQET
T1 sequence (P08195 102-630 partner): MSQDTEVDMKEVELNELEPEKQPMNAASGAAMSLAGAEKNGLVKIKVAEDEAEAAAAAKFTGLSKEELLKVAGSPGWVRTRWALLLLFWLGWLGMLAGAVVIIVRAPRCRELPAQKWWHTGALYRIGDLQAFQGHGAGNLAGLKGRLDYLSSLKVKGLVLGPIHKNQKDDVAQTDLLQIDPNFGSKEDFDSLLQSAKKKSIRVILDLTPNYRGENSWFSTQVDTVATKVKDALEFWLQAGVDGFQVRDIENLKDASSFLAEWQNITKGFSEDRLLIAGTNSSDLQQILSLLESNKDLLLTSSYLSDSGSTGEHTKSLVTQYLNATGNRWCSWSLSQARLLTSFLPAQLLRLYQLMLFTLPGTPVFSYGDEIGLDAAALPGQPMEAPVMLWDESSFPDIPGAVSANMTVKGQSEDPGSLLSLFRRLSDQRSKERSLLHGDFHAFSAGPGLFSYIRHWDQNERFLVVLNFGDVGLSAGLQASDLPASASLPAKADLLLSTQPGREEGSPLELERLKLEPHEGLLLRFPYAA
Procedure: Purified, GDN-solubilized human 4F2hc-LAT1 was attached via the His-tag to polyvinyltolune (PVT) copper His-tag SPA beads (Perkin Elmer) and the protein-bound [^3H]L-leucine quantified using a scintillation counter (a detailed description of SPA with 4F2hc-LAT1 is given in the methodological publication by ([Kantipudi et al., 2021])). Briefly, experiments were conducted in 96-well plates and per well a reaction volume of 50 µL containing 250 µg PVT-SPA-beads, 1.75 µg 4F2hc-LAT1 protein, 2.5 μM L-leucine spiked with 0.5 µCi [^3H]L-leucine (ARC/Anawa, 100 Ci/mmol, 1 mCi/ml) plus a condition-specific substance. All components were dissolved in SPA-Buffer (100 mM BTP pH 8, 150 mM NaCl, 10% (v/v) glycerol, 0.5% (w/v) GDN). For some condition-specific substances (i.e., the thyroid hormones), 20 min sonication in a water bath at 4°C was necessary to dissolve them at 10× concentration in SPA-Buffer. Per reaction, 5 µL of a 10× stock solution of the condition-specific substance was placed in a well and diluted with 45 µL of a master mix containing the remaining components. For determining the substrate specificities (Figure 1), the twenty proteogenic L-amino acids and D-leucine were used as competitors at a final concentration of 250 µM. For determining the K D of L-leucine (Figure 2A) and K i of L-histidine (Figure 2B), homologous (L-leucine) and heterologous (L-histidine) substrate competition was applied at concentrations ranging from 0.01 to 1600 µM. […] The binding specificities of structural analogues of L-leucine (Figure 3) and L-histidine (Figure 4) were tested at a final competitor concentration of 250 µM. […] To avoid minor unspecific binding of radioactive L-leucine to the beads, the master mix was created in a specific procedure: SPA-beads were first mixed with the unlabeled L-leucine and shaken for 2 h at 4°C before adding the remaining components (protein last). For background subtraction in the bar graph experiments, a no-protein control was included using protein-free master mix (i.e., containing buffer instead of protein solution). The plate was shortly mixed by shaking and incubated at 4°C for ∼18 h before the signals were counted using a microplate scintillation counter (Trilux Microbeta, Perkin Elmer). […] Three experiments with protein from at least two different purifications were performed, each at least in triplicates.
Data were analyzed with Prism 6 (GraphPad Software). […] Each experiment was done with sample number of at least three (triplicate). Data of three independent experiments were merged by adding the normalized data to a common data set, which was used for curve fitting. For data analysis of the bar graphs, the signal of the no-protein control was subtracted from the transporter signal to obtain the net binding signal.

[2] = molecular target: T1, human 4F2hc-LAT1; settings: ref Kantipudi et al., 2020, cited from earlier work
[3] = test system: recombinant human LAT1; design: method as in Napolitano et al., 2015; settings: proteoliposomes, ref Napolitano et al., 2015, cited from earlier work
[4] = Figure 4, L-histidine analogues, competitor 250 µM
[5] = heterologous competition with [3H]L-leucine, Figure 2B, C, E, F, read-out: Ki
[6] = Figure 3, L-leucine analogues, competitor 250 µM

Cn1cnc(C[C@H](N)C(=O)O)c1 [1-Methyl L-Histidine, 1-methyl-L-histidine]
Binding of [3H]L-Leucine (%), residual radioligand binding (RRB) [1, 4]: 59%
Binding of [3H]L-Leucine (%), residual radioligand binding (RRB) ([1]; Figure 4, L-histidine analogues, competitor 250 µM, listed as 1-methyl-L-histidine): 59–64%

Cn1cncc1C[C@H](N)C(=O)O [3-Methyl L-Histidine, 3-methyl-L-histidine]
Binding of [3H]L-Leucine (%), residual radioligand binding (RRB) [1, 4]: 64%
Binding of [3H]L-Leucine (%), residual radioligand binding (RRB) ([1]; Figure 4, L-histidine analogues, competitor 250 µM, listed as 3-methyl-L-histidine): 59–64%

C[C@H](N)C(=O)O [Ala]
Binding of [3H]L-Leucine (%), residual radioligand binding ([1]; Figure 1, competitor 250 µM): 36%

N=C(N)NCCC[C@H](N)C(=O)O [Arg]
Binding of [3H]L-Leucine (%), residual radioligand binding ([1]; Figure 1, competitor 250 µM): 68%

NC(=O)C[C@H](N)C(=O)O [Asn]
Binding of [3H]L-Leucine (%), residual radioligand binding ([1]; Figure 1, competitor 250 µM): 35%

N[C@@H](CC(=O)O)C(=O)O [Asp]
Binding of [3H]L-Leucine (%), residual radioligand binding ([1]; Figure 1, competitor 250 µM): 45%

NC1(C(=O)O)CC2CCC1C2 (centres unmarked) [BCH, 2-aminobicyclo-(2,2,1)-heptane-2-carboxylic acid]
Ki [1, 5]: 81 µM

N[C@@H](CS)C(=O)O [Cys]
Binding of [3H]L-Leucine (%), residual radioligand binding ([1]; Figure 1, competitor 250 µM): 35%

CC(C)C[C@@H](N)C(=O)O [D-Leu, D-leucine]
Binding of [3H]L-Leucine (%), residual radioligand binding ([1]; Figure 1, competitor 250 µM): 52%
inhibition of [3H]L-leucine binding ([1]; competitor 250 µM, Figure 1): about 50%

NC(=O)CC[C@H](N)C(=O)O [Gln, L-glutamine]
Binding of [3H]L-Leucine (%), residual radioligand binding ([1]; Figure 1, competitor 250 µM): 29%

N[C@@H](CCC(=O)O)C(=O)O [Glu]
Binding of [3H]L-Leucine (%), residual radioligand binding ([1]; Figure 1, competitor 250 µM): 90%

NCC(=O)O [Gly]
Binding of [3H]L-Leucine (%), residual radioligand binding ([1]; Figure 1, competitor 250 µM): 44%

Nc1cc(COc2c(Cl)cc(C[C@H](N)C(=O)O)cc2Cl)c2oc(-c3ccccc3)nc2c1 [JPH203, (S)-2-amino-3-(4-((5-amino-2-phenylbenzo [d]oxazol-7-yl)-methoxy)-3,5-dichlorophenyl)-propanoic acid]
Ki ([1]; heterologous competition with [3H]L-leucine, Figure 2D, read-out: Ki): 0.079 µM

CC[C@H](N)C(=O)O [L-2-Aminobutyric Acid, L-2-aminobutyric acid]
Binding of [3H]L-Leucine (%), residual radioligand binding (RRB) [1, 6]: 45%
Binding of [3H]L-Leucine (%), residual radioligand binding (RRB) ([1]; Figure 3, L-leucine analogues, competitor 250 µM, listed as L-2-aminobutyric acid): 37–45%

COC(=O)[C@@H](N)Cc1c[nH]cn1 [L-Histidine Methyl Ester, L-histidine-methyl ester]
Binding of [3H]L-Leucine (%), residual radioligand binding (RRB) [1, 4]: 102%
binding / inhibition of [3H]L-leucine binding to 4F2hc-LAT1, in words ([1]; competitor 250 µM): no significant binding

N[C@@H](Cc1c[nH]cn1)C(=O)O [L-Histidine, L-histidine]
Binding of [3H]L-Leucine (%), residual radioligand binding ([1]; Figure 1, competitor 250 µM): 2%
Binding of [3H]L-Leucine (%), residual radioligand binding (RRB) [1, 4]: 1%
binding / inhibition of [3H]L-leucine binding to 4F2hc-LAT1, in words ([1]; competitor 250 µM): inhibited strongly
Ki [1, 5]: 28 µM
IC50 ([2]; [3H]L-leucine uptake inhibition, P. pastoris cells): 23 µM
Km ([3]; external side, read-out: external Km): 24.6 µM
Km ([3]; internal side, read-out: internal Km): 2800 µM

CC[C@H](C)[C@H](N)C(=O)O [L-Isoleucine, L-isoleucine]
Binding of [3H]L-Leucine (%), residual radioligand binding ([1]; Figure 1, competitor 250 µM): 19-29%
Binding of [3H]L-Leucine (%), residual radioligand binding ([1]; Figure 1, competitor 250 µM, listed as Ile): 22%
Binding of [3H]L-Leucine (%), residual radioligand binding (RRB) [1, 6]: 28%

CC(C)C[C@H](N)C(=O)O [L-Leucine, L-leucine]
Binding of [3H]L-Leucine (%), residual radioligand binding ([1]; Figure 1, competitor 250 µM): 1%
Binding of [3H]L-Leucine (%), residual radioligand binding (RRB) [1, 6]: 1%
binding / inhibition of [3H]L-leucine binding to 4F2hc-LAT1, in words ([1]; competitor 250 µM): inhibited strongly
Kd ([1]; homologous competition with [3H]L-leucine, Figure 2A): 26 µM
Km ([2]; P. pastoris cell uptake assay): 25 µM

COC(=O)[C@@H](N)CC(C)C [L-Leucine-Methyl Ester, L-leucine-methyl ester]
Binding of [3H]L-Leucine (%), residual radioligand binding (RRB) [1, 6]: 106%
binding / inhibition of [3H]L-leucine binding to 4F2hc-LAT1, in words ([1]; competitor 250 µM): no significant binding

CC(C)(C)C[C@H](N)C(=O)O [L-Neopentylglycine, L-neopentyl glycine]
Binding of [3H]L-Leucine (%), residual radioligand binding (RRB) [1, 6]: 43%
Binding of [3H]L-Leucine (%), residual radioligand binding (RRB) ([1]; Figure 3, L-leucine analogues, competitor 250 µM, listed as L-neopentyl glycine): 32–43%

CCCC[C@H](N)C(=O)O [L-Norleucine, L-norleucine]
Binding of [3H]L-Leucine (%), residual radioligand binding (RRB) [1, 6]: 62%

CCC[C@H](N)C(=O)O [L-Norvaline, L-norvaline]
Binding of [3H]L-Leucine (%), residual radioligand binding (RRB) [1, 6]: 32%
Binding of [3H]L-Leucine (%), residual radioligand binding (RRB) ([1]; Figure 3, L-leucine analogues, competitor 250 µM, listed as L-norvaline): 32–43%

CC(C)[C@H](N)C(=O)O [L-Valine, L-valine]
Binding of [3H]L-Leucine (%), residual radioligand binding ([1]; Figure 1, competitor 250 µM): 19-29%
Binding of [3H]L-Leucine (%), residual radioligand binding ([1]; Figure 1, competitor 250 µM, listed as Val): 19%
Binding of [3H]L-Leucine (%), residual radioligand binding (RRB) [1, 6]: 27%

CC(C)(C)[C@H](N)C(=O)O [L-tert-Leucine, L-tert-leucine]
Binding of [3H]L-Leucine (%), residual radioligand binding (RRB) [1, 6]: 37%
Binding of [3H]L-Leucine (%), residual radioligand binding (RRB) ([1]; Figure 3, L-leucine analogues, competitor 250 µM, listed as L-tert-leucine): 37–45%

NCCCC[C@H](N)C(=O)O [Lys]
Binding of [3H]L-Leucine (%), residual radioligand binding ([1]; Figure 1, competitor 250 µM): 45%

CSCC[C@H](N)C(=O)O [Met]
Binding of [3H]L-Leucine (%), residual radioligand binding ([1]; Figure 1, competitor 250 µM): 36%

CN[C@@H](Cc1c[nH]cn1)C(=O)O [N-Methyl L-Histidine, N-methyl-L-histidine]
Binding of [3H]L-Leucine (%), residual radioligand binding (RRB) [1, 4]: 103%
binding / inhibition of [3H]L-leucine binding to 4F2hc-LAT1, in words ([1]; competitor 250 µM): no significant binding

CN[C@@H](CC(C)C)C(=O)O [N-Methyl-L-Leucine, N-methyl-L-leucine]
Binding of [3H]L-Leucine (%), residual radioligand binding (RRB) [1, 6]: 103%
binding / inhibition of [3H]L-leucine binding to 4F2hc-LAT1, in words ([1]; competitor 250 µM): no significant binding

N[C@@H](Cc1ccccc1)C(=O)O [Phe, L-phenylalanine]
Binding of [3H]L-Leucine (%), residual radioligand binding ([1]; Figure 1, competitor 250 µM): 29%
Binding of [3H]L-Leucine (%), residual radioligand binding ([1]; Figure 1, competitor 250 µM, listed as L-phenylalanine): 19-29%

N[C@@H](CO)C(=O)O [Ser]
Binding of [3H]L-Leucine (%), residual radioligand binding ([1]; Figure 1, competitor 250 µM): 46%

NC(Cc1cc(I)c(Oc2cc(I)c(O)c(I)c2)c(I)c1)C(=O)O (centres unmarked) [T4, thyroxine]
Ki [1]: 10 µM

C[C@@H](O)[C@H](N)C(=O)O [Thr]
Binding of [3H]L-Leucine (%), residual radioligand binding ([1]; Figure 1, competitor 250 µM): 34%

N[C@@H](Cc1c[nH]c2ccccc12)C(=O)O [Trp, L-tryptophan]
Binding of [3H]L-Leucine (%), residual radioligand binding ([1]; Figure 1, competitor 250 µM): 21%
Binding of [3H]L-Leucine (%), residual radioligand binding ([1]; Figure 1, competitor 250 µM, listed as L-tryptophan): 19-29%

N[C@@H](Cc1ccc(O)cc1)C(=O)O [Tyr, L-tyrosine]
Binding of [3H]L-Leucine (%), residual radioligand binding ([1]; Figure 1, competitor 250 µM): 26%
Binding of [3H]L-Leucine (%), residual radioligand binding ([1]; Figure 1, competitor 250 µM, listed as L-tyrosine): 19-29%
